Source: patent US10710986B2, “PD-1/PD-L1 inhibitors” (Gilead Sciences, Inc., priority 2018, dated 2020)

Biological target: PD-1/PD-L1 (Homo sapiens (Human), UniProt Q9NZQ7)
Assay: PD-1/PD-L1 biochemical protein-protein interaction assay (ALPHA)
Details: 0.3 nM His tagged PD-L1, 2.5 nM biotinylated Fc-PD-1, 60 minutes at 25° C., read-out: IC50 PD-L1-PD1

Sequence of PD-1/PD-L1 (Q9NZQ7 19-238): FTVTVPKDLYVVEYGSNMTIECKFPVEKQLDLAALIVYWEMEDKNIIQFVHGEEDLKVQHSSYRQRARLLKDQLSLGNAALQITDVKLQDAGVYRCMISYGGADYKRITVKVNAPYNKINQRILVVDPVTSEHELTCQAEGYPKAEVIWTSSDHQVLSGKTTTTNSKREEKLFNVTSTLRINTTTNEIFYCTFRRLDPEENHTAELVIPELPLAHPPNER

## COc1nc(-c2cccc(-c3cccc(-c4cnc(CN5CCC(c6cnccn6)C5)c(OC)n4)c3Cl)c2Cl)cnc1CNC[C@@H]1CCC(=O)N1 (some centres unmarked) [compound 404]
  IC50: 0.07 nM

## COc1nc(-c2cccc(-c3cccc(-c4cnc(CN5CCC(c6cccnc6)C5)c(OC)n4)c3Cl)c2Cl)cnc1CNC[C@@H]1CCC(=O)N1 (some centres unmarked) [compound 405]
  IC50: 0.16 nM

## COc1nc(-c2cccc(-c3cccc(-c4cnc(CN5CCC(c6ccccn6)C5)c(OC)n4)c3Cl)c2Cl)cnc1CNC[C@@H]1CCC(=O)N1 (some centres unmarked) [compound 406]
  IC50: 0.28 nM

## COc1nc(-c2cccc(-c3cccc(-c4cnc(CN5CCC(O)(CC#N)C5)c(OC)n4)c3Cl)c2Cl)cnc1CNC[C@@H]1CCC(=O)N1 (some centres unmarked) [compound 407]
  IC50: 0.186 nM

## COc1nc(-c2cccc(-c3cccc(-c4cnc(CN5CCC(c6ncccn6)C5)c(OC)n4)c3Cl)c2Cl)cnc1CNC[C@@H]1CCC(=O)N1 (some centres unmarked) [compound 408]
  IC50: 0.139 nM

## COc1nc(-c2cccc(-c3cccc(-c4cnc(CN5CCC(C6CCCO6)C5)c(OC)n4)c3Cl)c2Cl)cnc1CNC[C@@H]1CCC(=O)N1 (some centres unmarked) [compound 409]
  IC50: 0.124 nM

## COc1nc(-c2cccc(-c3cccc(-c4cnc(CN5CCC(c6ccncc6)C5)c(OC)n4)c3Cl)c2Cl)cnc1CNC[C@@H]1CCC(=O)N1 (some centres unmarked) [compound 410]
  IC50: 0.316 nM

## COc1nc(-c2cccc(-c3cccc(-c4cnc(CN5CCC(C6CCOC6)C5)c(OC)n4)c3Cl)c2Cl)cnc1CNC[C@@H]1CCC(=O)N1 (some centres unmarked) [compound 411]
  IC50: 0.321 nM

## COc1nc(-c2cccc(-c3cccc(-c4cnc(CNC[C@@H]5CCC(=O)N5)c(OC)n4)c3Cl)c2Cl)cnc1CNCCc1cncc(O)c1 [compound 412]
  IC50: 0.187 nM

## COc1nc(-c2cccc(-c3cccc(-c4cnc(CNC[C@@H]5CCC(=O)N5)c(OC)n4)c3Cl)c2Cl)cnc1CNCC(O)CN1CCCC1 (some centres unmarked) [compound 413]
  IC50: 0.162 nM

## COc1ccnc2c1CN(Cc1ncc(-c3cccc(-c4cccc(-c5cnc(CNC[C@@H]6CCC(=O)N6)c(OC)n5)c4Cl)c3Cl)nc1OC)C2 [compound 414]
  IC50: 0.559 nM

## COc1nc(-c2cccc(-c3cccc(-c4cnc(CNC5CCN(C(=O)c6ccoc6)CC5)c(OC)n4)c3Cl)c2Cl)cnc1CNC[C@@H]1CCC(=O)N1 [compound 415]
  IC50: 0.195 nM

## COc1nc(-c2cccc(-c3cccc(-c4cnc(CNC5CCN(C)C(=O)C5)c(OC)n4)c3Cl)c2Cl)cnc1CNC[C@@H]1CCC(=O)N1 (some centres unmarked) [compound 416]
  IC50: 0.14 nM

## COc1nc(-c2cccc(-c3cccc(-c4cnc(CNC[C@@H]5CCC(=O)N5)c(OC)n4)c3Cl)c2Cl)cnc1CNCCc1ccccn1 [compound 417]
  IC50: 0.196 nM

## COc1nc(-c2cccc(-c3cccc(-c4cnc(CNC[C@@H]5CCC(=O)N5)c(OC)n4)c3Cl)c2Cl)cnc1CNCc1ccccn1 [compound 418]
  IC50: 0.219 nM

## COc1nc(-c2cccc(-c3cccc(-c4cnc(CNC[C@@H]5CCC(=O)N5)c(OC)n4)c3Cl)c2Cl)cnc1CNCCCc1nc2ccccc2[nH]1 [compound 419]
  IC50: 0.542 nM

## COc1nc(-c2cccc(-c3cccc(-c4cnc(CNC[C@@H]5CCC(=O)N5)c(OC)n4)c3Cl)c2Cl)cnc1CNCc1ncccn1 [compound 420]
  IC50: 0.449 nM

## COc1nc(-c2cccc(-c3cccc(-c4cnc(CNC5(c6ccccn6)CC5)c(OC)n4)c3Cl)c2Cl)cnc1CNC[C@@H]1CCC(=O)N1 [compound 421]
  IC50: 0.603 nM

## COc1nc(-c2cccc(-c3cccc(-c4cnc(CNC[C@@H]5CCC(=O)N5)c(OC)n4)c3Cl)c2Cl)cnc1CNCc1ccncc1 [compound 422]
  IC50: 0.554 nM

## COc1nc(-c2cccc(-c3cccc(-c4cnc(CN5C[C@H](O)C[C@H]5CO)c(OC)n4)c3Cl)c2Cl)cnc1CNC[C@@H]1CCC(=O)N1 [compound 423]
  IC50: 0.237 nM

## COc1nc(-c2cccc(-c3cccc(-c4cnc(CNC5(c6cccnc6)CC5)c(OC)n4)c3Cl)c2Cl)cnc1CNC[C@@H]1CCC(=O)N1 [compound 424]
  IC50: 0.617 nM

## COc1nc(-c2cccc(-c3cccc(-c4cnc(CNC[C@@H]5CCC(=O)N5)c(OC)n4)c3Cl)c2Cl)cnc1CNCc1cccnc1 [compound 425]
  IC50: 0.414 nM

## COc1nc(-c2cccc(-c3cccc(-c4cnc(CNCC5(O)CC5)c(OC)n4)c3Cl)c2Cl)cnc1CNC[C@@H]1CCC(=O)N1 [compound 426]
  IC50: 0.273 nM

## COc1nc(-c2cccc(-c3cccc(-c4cnc(CN5CC[C@@H](OC)C5)c(OC)n4)c3Cl)c2Cl)cnc1CNC[C@@H]1CCC(=O)N1 [compound 427]
  IC50: 0.136 nM

## COc1nc(-c2cccc(-c3cccc(-c4cnc(CNC(CO)(CO)CO)c(OC)n4)c3Cl)c2Cl)cnc1CNC[C@@H]1CCC(=O)N1 [compound 428]
  IC50: 0.272 nM

## COc1nc(-c2cccc(-c3cccc(-c4cnc(CNCC5(C#N)CC5)c(OC)n4)c3Cl)c2Cl)cnc1CNC[C@@H]1CCC(=O)N1 [compound 429]
  IC50: 0.349 nM

## COc1nc(-c2cccc(-c3cccc(-c4cnc(CN5CC[C@H](OC)C5)c(OC)n4)c3Cl)c2Cl)cnc1CNC[C@@H]1CCC(=O)N1 [compound 430]
  IC50: 0.071 nM

## COc1nc(-c2cccc(-c3cccc(-c4cnc(CN5CC[C@H](O)C5)c(OC)n4)c3Cl)c2Cl)cnc1CNC[C@@H]1CCC(=O)N1 [compound 431]
  IC50: 0.124 nM

## COc1nc(-c2cccc(-c3cccc(-c4cnc(CN[C@H]5C[C@](O)(CF)C5)c(OC)n4)c3Cl)c2Cl)cnc1CNC[C@@H]1CCC(=O)N1 [compound 432]
  IC50: 0.084 nM

## COc1nc(-c2cccc(-c3cccc(-c4cnc(CNC[C@@H]5CCC(=O)N5)c(OC)n4)c3Cl)c2Cl)cnc1CNCC1OCCO1 [compound 433]
  IC50: 0.259 nM

## COc1nc(-c2cccc(-c3cccc(-c4cnc(CNCC[C@@H]5CCC(=O)N5)c(OC)n4)c3Cl)c2Cl)cnc1CNCC[C@@H]1CCC(=O)N1 [compound 434]
  IC50: 0.064 nM

## COc1nc(-c2cccc(-c3cccc(-c4cnc(CNC[C@@H]5CCC(=O)N5)c(OC)n4)c3Cl)c2Cl)cnc1CNC[C@@H]1CNC(=O)C1 [compound 435]
  IC50: 0.064 nM

## COc1nc(-c2cccc(-c3cccc(-c4cnc(CN)c(OC)n4)c3Cl)c2Cl)ccc1CN [compound 436]
  IC50: 5.46 nM

## COc1nc(-c2cccc(-c3cccc(-c4cnc(CN5CC6(CNC(=O)C6)C5)c(OC)n4)c3Cl)c2Cl)ccc1CN1CC2(CNC(=O)C2)C1 [compound 437]
  IC50: 0.086 nM

## COc1nc(-c2cccc(-c3cccc(-c4cnc(CN5CC(OC)C5)c(OC)n4)c3Cl)c2Cl)ccc1CN1CC(OC)C1 [compound 438, 5-(2,2′-dichloro-3′-(6-methoxy-5-((3-methoxyazetidin-1-yl)methyl)pyridin-2-yl)-[1,1′-biphenyl]-3-yl)-3-methoxy-2-((3-methoxyazetidin-1-yl)methyl)pyrazine]
  IC50: 1.34 nM

## COc1nc(-c2cccc(-c3cccc(-c4cnc(CN5CC(O)C5)c(OC)n4)c3Cl)c2Cl)ccc1CN1CC(O)C1 [compound 439]
  IC50: 0.646 nM

## COc1nc(-c2cccc(-c3cccc(-c4cnc(CNC[C@@H]5CCC(=O)N5)cn4)c3Cl)c2Cl)ccc1CNC[C@@H]1CCC(=O)N1 [compound 440]
  IC50: 1.87 nM

## COc1nc(-c2cccc(-c3cccc(-c4cnc(CN5CCC(c6cn[nH]c6)C5)c(OC)n4)c3Cl)c2Cl)cnc1CNC[C@@H]1CCC(=O)N1 (some centres unmarked) [compound 441]
  IC50: 0.064 nM

## COc1nc(-c2cccc(-c3cccc(-c4cnc(CN5CCC(C)(CO)C5)c(OC)n4)c3Cl)c2Cl)cnc1CNC[C@@H]1CCC(=O)N1 (some centres unmarked) [compound 442]
  IC50: 0.146 nM

## COc1nc(-c2cccc(-c3cccc(-c4cnc(CN5CCC(C)(OC)C5)c(OC)n4)c3Cl)c2Cl)cnc1CNC[C@@H]1CCC(=O)N1 (some centres unmarked) [compound 443]
  IC50: 0.246 nM

## COc1nc(-c2cccc(-c3cccc(-c4cnc(CN5CC6(CNC(=O)C6)C5)c(OC)n4)c3Cl)c2Cl)cnc1CN1CC(C)(O)C1 [compound 444]
  IC50: 0.074 nM

## COc1nc(-c2cccc(-c3cccc(-c4cnc(CN5CC6(CCC(=O)N6)C5)c(OC)n4)c3Cl)c2Cl)cnc1CN1CC(C)(O)C1 [compound 445]
  IC50: 0.069 nM

## COc1nc(-c2cccc(-c3cccc(-c4cnc(CN5CC(C)(O)C5)c(OC)n4)c3Cl)c2Cl)cnc1CNC[C@H]1CCC(=O)N1 [compound 446]
  IC50: 0.138 nM

## COc1nc(-c2cccc(-c3cccc(-c4cnc(CN5CC6(C5)CN(C(C)=O)C6)c(OC)n4)c3Cl)c2Cl)cnc1CN1CC(C)(O)C1 [compound 447]
  IC50: 0.064 nM

## COc1nc(-c2cccc(-c3cccc(-c4cnc(CN5CC(C)(O)C5)c(OC)n4)c3Cl)c2Cl)cnc1CN1CC[C@@H](CO)C1 [compound 448]
  IC50: 0.064 nM

## COc1nc(-c2cccc(-c3cccc(-c4cnc(CN5CC(C)(O)C5)c(OC)n4)c3Cl)c2Cl)cnc1CNCCO [compound 449]
  IC50: 0.285 nM

## COc1nc(-c2cccc(-c3cccc(-c4cnc5c(CN6CC7(CCC(=O)N7)C6)cn(C)c5c4)c3Cl)c2Cl)cnc1CN1CC2(CCC(=O)N2)C1 [compound 450]
  IC50: 0.064 nM

## COc1nc(-c2cccc(-c3cccc(-c4cnc5c(CN6CC7(C6)CN(C(C)=O)C7)cn(C)c5c4)c3Cl)c2Cl)cnc1CN1CC2(C1)CN(C(C)=O)C2 [compound 451]
  IC50: 0.101 nM

## CCC(=O)NC1CCN(Cc2ncc(-c3cccc(-c4cccc(-c5cnc(CNC[C@@H]6CCC(=O)N6)c(OC)n5)c4Cl)c3Cl)nc2OC)C1 (some centres unmarked) [compound 452]
  IC50: 0.086 nM

## COc1nc(-c2cccc(-c3cccc(-c4cnc(CN5CCCC5(C)CO)c(OC)n4)c3Cl)c2Cl)cnc1CNC[C@@H]1CCC(=O)N1 (some centres unmarked) [compound 453]
  IC50: 0.139 nM

## COc1nc(-c2cccc(-c3cccc(-c4cnc(CNCCOC(N)=O)c(OC)n4)c3Cl)c2Cl)cnc1CNCCOC(N)=O [compound 454]
  IC50: 0.064 nM

## COc1nc(-c2cccc(-c3cccc(-c4cnc(CNCc5cnn(CCO)c5)c(OC)n4)c3Cl)c2Cl)cnc1CNCc1cnn(CCO)c1 [compound 455]
  IC50: 0.145 nM

## COc1nc(-c2cccc(-c3cccc(-c4cnc(CNCc5cn[nH]c5)c(OC)n4)c3Cl)c2Cl)cnc1CNCc1cn[nH]c1 [compound 456]
  IC50: 0.186 nM

## COc1nc(-c2cccc(-c3cccc(-c4cnc(CN5CCC([C@H](C)O)CC5)c(OC)n4)c3Cl)c2Cl)cnc1CNC[C@@H]1CCC(=O)N1 [compound 457]
  IC50: 0.172 nM

## COc1nc(-c2cccc(-c3cccc(-c4cnc(CN[C@H]5CC[C@@H](C#N)C5)c(OC)n4)c3Cl)c2Cl)cnc1CNC[C@@H]1CCC(=O)N1 [compound 458]
  IC50: 0.087 nM

## COc1nc(-c2cccc(-c3cccc(-c4cnc(CN(C)C[C@H]5C[C@H](O)C5)c(OC)n4)c3Cl)c2Cl)cnc1CNC[C@@H]1CCC(=O)N1 [compound 459]
  IC50: 0.344 nM
